The conditions of data set [1]: in all the solvents that may be used for retinoids; cited from earlier work.
Data set [2] is described as follows: Chemical stability of the formulations (HPLC assay of the active agents). The format is physicochemical. The protocol: The chemical stability is measured by assaying the active agents by external calibration in HPLC and the results are expressed as a % of […] relative to the theoretical value.

`COc1ccc(-c2ccc3cc(C(=O)O)ccc3c2)cc1C12CC3CC(CC(C3)C1)C2` [Adapalene, 6-(3-(1-adamantyl)-4-methoxyphenyl)-2-naphthoic acid]: the “Solubility of adapalene (in words)” value in data set [1] is “insoluble”. Also, the “Chemical stability: adapalene assay, % relative to the theoretical value” turned out to be 92.4% in data set [2] (in composition of Example 2, 40° C., T + 1 M); 96.8% in data set [2] (in composition of Example 2, 40° C., T + 2 M); 94.5% in data set [2] (in composition of Example 2, 40° C., T + 3 M); 94% in data set [2] (in composition of Example 2, RT, T + 1 M); 97.4% in data set [2] (in composition of Example 2, RT, T + 2 M); 95.3% in data set [2] (in composition of Example 2, RT, T + 3 M). For the same compound, the “Chemical stability: adapalene assay, % relative to the theoretical value” in data set [2] (in composition of Example 3, 4° C., T + 1 M) was determined as 104%; in data set [2] (in composition of Example 3, 4° C., T + 2 M) it was 107.0%; in data set [2] (in composition of Example 3, 40° C., T + 1 M), 108%; in data set [2] (in composition of Example 3, 40° C., T + 2 M), 106.0%; in data set [2] (in composition of Example 3, RT, T0) it was 108.7%; in data set [2] (in composition of Example 3, RT, T + 1 M), 106%. Also, in data set [2] (in composition of Example 3, RT, T + 2 M), the “Chemical stability: adapalene assay, % relative to the theoretical value” stood at 106.0%.

Values taken from patent publication US20110319491A1, “ANHYDROUS DEPIGMENTING COMPOSITIONS COMPRISING, WITHIN THE FATTY PHASE THEREOF, A SOLUBILIZED PHENOLIC COMPOUND AND A RETINOID” (GALDERMA RESEARCH & DEVELOPMENT, priority 2009, published 2011).
